Measured values as given in PMC8025945 (Journal of medicinal chemistry, 2017).

Experiments:
[1] = system: HOP-62; conditions: human, HOP-62 lung tumor cells
[2] = system: NCI-60 human tumor cell lines; conditions: NCI-60 human tumor cell lines (all cell lines tested)
[3] = target: T1, recombinant Top1 (Homo sapiens, UniProt P11387); assay: Top1-mediated DNA cleavage assay; type: biochemical; conditions: semiquantitative scale relative to 1 μM MJ-III-65 (6) and 1 μM camptothecin (1)
T1 sequence (P11387 1-765): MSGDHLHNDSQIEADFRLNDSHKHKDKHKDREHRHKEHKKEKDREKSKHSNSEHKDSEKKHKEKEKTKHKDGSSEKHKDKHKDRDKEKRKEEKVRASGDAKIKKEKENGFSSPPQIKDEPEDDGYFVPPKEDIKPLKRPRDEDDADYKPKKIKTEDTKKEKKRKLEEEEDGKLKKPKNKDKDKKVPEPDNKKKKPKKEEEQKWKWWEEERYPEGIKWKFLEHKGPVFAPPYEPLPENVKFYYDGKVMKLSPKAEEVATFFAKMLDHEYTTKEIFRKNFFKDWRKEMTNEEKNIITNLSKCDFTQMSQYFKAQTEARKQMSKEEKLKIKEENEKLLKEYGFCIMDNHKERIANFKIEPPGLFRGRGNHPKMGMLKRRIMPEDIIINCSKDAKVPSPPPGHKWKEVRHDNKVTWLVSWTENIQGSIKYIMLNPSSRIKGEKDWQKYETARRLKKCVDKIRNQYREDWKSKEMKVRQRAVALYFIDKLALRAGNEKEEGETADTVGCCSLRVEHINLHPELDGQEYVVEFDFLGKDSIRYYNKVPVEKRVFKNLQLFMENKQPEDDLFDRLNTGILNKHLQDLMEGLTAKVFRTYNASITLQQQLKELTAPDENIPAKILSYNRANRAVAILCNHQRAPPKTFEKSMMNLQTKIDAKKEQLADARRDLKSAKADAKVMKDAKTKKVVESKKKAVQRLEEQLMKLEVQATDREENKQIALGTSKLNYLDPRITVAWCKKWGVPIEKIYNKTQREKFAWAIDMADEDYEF

[4] = system: DU-145; conditions: human, DU-145 prostate tumor cells
[5] = system: HCT-116; conditions: human, HCT-116 colon tumor cells
[6] = system: OVCAR-3; conditions: human, OVCAR-3 ovarian tumor cells

GI50 [1]: 0.186 µM
GI50 [2]: 0.229 µM
enzyme inhibitory activity Top1 (compound-induced DNA cleavage score) [3]: +++
GI50 [4]: 0.309 µM
GI50 [5]: 0.107 µM
GI50 [6]: 0.407 µM
Compound: O=C1c2ccccc2-c2c1c1ccc(Cl)cc1c(=O)n2CCCn1ccnc1 [compound 8]
